In PMC4767141, “Discovery of Potent, Orally Bioavailable, Small-Molecule Inhibitors of WNT Signaling from a Cell-Based Pathway Screen” (Journal of Medicinal Chemistry, 2015):

Columns and labels:
[1] = target: T1, NK2 (h) (Homo sapiens, UniProt P21452); assay: CEREP binding panel; details: agonist radioligand, read-out: % Inhibition of Control Specific Binding
T1 construct: purchased Millipore KinaseProfiler (kinases); Cerep (receptors and ion channels)

[2] = tested on: Na+ channel (site 2); assay: CEREP binding panel; details: 10 μM, antagonist radioligand
[3] = target: T2, MNK2 (Homo sapiens, UniProt Q9HBH9); assay: Millipore kinase panel; type: biochemical; details: read-out: % Control
T2 construct: purchased Millipore KinaseProfiler (kinases); Cerep (receptors and ion channels)

[4] = target: T3, AT1 (h) (Homo sapiens, UniProt P30556); assay: CEREP binding panel; details: antagonist radioligand, read-out: % Inhibition of Control Specific Binding
T3 construct: purchased Millipore KinaseProfiler (kinases); Cerep (receptors and ion channels)

[5] = target: T4, IRR (Homo sapiens, UniProt P14616); assay: Millipore kinase panel; type: biochemical; details: read-out: % Control
T4 construct: purchased Millipore KinaseProfiler (kinases); Cerep (receptors and ion channels)

[6] = target: T5, NOP (ORL1) (h) (Homo sapiens, UniProt P41146); assay: CEREP binding panel; details: agonist radioligand, read-out: % Inhibition of Control Specific Binding
T5 construct: purchased Millipore KinaseProfiler (kinases); Cerep (receptors and ion channels)
T5 sequence (P41146 whole entry): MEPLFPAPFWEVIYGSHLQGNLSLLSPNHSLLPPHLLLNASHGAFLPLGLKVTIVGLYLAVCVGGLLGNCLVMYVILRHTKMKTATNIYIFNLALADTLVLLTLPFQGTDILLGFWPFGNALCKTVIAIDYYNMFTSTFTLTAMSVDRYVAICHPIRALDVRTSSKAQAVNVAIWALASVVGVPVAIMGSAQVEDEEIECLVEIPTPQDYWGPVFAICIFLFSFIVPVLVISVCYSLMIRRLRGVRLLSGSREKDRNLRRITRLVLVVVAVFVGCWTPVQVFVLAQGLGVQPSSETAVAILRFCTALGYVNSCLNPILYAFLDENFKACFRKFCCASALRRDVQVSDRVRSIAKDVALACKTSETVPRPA

[7] = target: T6, IRAK1 (Homo sapiens, UniProt P51617); assay: Millipore kinase panel; type: biochemical; details: read-out: % Control
T6 construct: purchased Millipore KinaseProfiler (kinases); Cerep (receptors and ion channels)
T6 sequence (P51617 whole entry): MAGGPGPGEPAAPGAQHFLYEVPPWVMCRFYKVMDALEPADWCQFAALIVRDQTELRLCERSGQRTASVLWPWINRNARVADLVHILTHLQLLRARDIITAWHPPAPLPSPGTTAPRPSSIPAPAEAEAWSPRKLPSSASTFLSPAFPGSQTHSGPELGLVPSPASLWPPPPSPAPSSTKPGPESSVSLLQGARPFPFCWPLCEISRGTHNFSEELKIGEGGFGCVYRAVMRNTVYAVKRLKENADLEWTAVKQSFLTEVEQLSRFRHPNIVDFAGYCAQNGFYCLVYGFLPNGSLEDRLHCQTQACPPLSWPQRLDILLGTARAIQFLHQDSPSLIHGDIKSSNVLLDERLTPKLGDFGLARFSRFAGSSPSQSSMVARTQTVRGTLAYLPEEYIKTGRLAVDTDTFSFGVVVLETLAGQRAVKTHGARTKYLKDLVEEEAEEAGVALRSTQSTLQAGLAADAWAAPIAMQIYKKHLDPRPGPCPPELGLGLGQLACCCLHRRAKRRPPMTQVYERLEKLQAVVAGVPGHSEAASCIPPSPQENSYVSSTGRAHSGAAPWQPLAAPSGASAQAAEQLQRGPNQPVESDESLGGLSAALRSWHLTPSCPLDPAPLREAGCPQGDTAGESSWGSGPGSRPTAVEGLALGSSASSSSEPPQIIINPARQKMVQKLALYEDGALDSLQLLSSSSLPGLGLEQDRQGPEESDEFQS

[8] = tested on: MKK4; assay: Millipore kinase panel; type: biochemical; details: 1 μM, ATP at Km
[9] = target: T7, EPHA3 (Homo sapiens, UniProt P29320); assay: Millipore kinase panel; type: biochemical; details: read-out: % Control
T7 construct: purchased Millipore KinaseProfiler (kinases); Cerep (receptors and ion channels)
T7 sequence (P29320 21-983): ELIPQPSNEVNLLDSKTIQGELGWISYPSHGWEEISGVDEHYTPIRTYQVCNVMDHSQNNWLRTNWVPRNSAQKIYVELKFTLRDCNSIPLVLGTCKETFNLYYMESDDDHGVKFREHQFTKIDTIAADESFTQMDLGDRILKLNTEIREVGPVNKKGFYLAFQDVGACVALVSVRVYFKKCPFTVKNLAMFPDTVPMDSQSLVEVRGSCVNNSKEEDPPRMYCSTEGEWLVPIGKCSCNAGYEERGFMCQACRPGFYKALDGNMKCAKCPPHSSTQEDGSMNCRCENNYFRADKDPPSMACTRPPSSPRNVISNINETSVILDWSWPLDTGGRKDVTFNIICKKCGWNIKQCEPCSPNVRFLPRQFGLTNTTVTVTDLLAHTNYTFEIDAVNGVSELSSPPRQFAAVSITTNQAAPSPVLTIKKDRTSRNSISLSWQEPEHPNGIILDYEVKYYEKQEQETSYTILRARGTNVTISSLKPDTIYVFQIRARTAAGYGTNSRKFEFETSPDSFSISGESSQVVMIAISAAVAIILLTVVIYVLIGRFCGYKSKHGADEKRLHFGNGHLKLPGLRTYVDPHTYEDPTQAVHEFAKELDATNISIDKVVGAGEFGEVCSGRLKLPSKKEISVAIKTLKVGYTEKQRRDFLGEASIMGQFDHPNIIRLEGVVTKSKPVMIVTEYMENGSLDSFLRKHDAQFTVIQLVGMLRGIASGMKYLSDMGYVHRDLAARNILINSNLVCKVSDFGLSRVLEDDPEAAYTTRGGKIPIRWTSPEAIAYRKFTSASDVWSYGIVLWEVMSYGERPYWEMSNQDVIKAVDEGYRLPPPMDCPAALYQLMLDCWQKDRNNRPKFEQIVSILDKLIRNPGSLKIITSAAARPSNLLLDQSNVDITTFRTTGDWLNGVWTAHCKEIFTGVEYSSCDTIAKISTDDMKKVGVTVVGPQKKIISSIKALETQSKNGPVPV

[10] = target: T8, BTK (Homo sapiens, UniProt Q06187); assay: Millipore kinase panel; type: biochemical; details: read-out: % Control
T8 construct: purchased Millipore KinaseProfiler (kinases); Cerep (receptors and ion channels)

[11] = target: T9, SIK (Homo sapiens, UniProt P57059); assay: Millipore kinase panel; type: biochemical; details: read-out: % Control
T9 construct: purchased Millipore KinaseProfiler (kinases); Cerep (receptors and ion channels)

[12] = target: T10, MINK (Homo sapiens, UniProt Q8N4C8); assay: Millipore kinase panel; type: biochemical; details: read-out: % Control
T10 construct: purchased Millipore KinaseProfiler (kinases); Cerep (receptors and ion channels)

[13] = target: T11, TXK (Homo sapiens, UniProt P42681); assay: Millipore kinase panel; type: biochemical; details: read-out: % Control
T11 construct: purchased Millipore KinaseProfiler (kinases); Cerep (receptors and ion channels)

[14] = target: T12, MST3 (Homo sapiens, UniProt Q9Y6E0); assay: Millipore kinase panel; type: biochemical; details: read-out: % Control
T12 construct: purchased Millipore KinaseProfiler (kinases); Cerep (receptors and ion channels)

[15] = target: T13, 5-HT2A (h) (Homo sapiens, UniProt P28223); assay: CEREP binding panel; details: antagonist radioligand, read-out: % Inhibition of Control Specific Binding
T13 construct: purchased Millipore KinaseProfiler (kinases); Cerep (receptors and ion channels)

[16] = target: T14, RET (Homo sapiens, UniProt P07949); assay: Millipore kinase panel; type: biochemical; details: read-out: % Control
T14 construct: purchased Millipore KinaseProfiler (kinases); Cerep (receptors and ion channels)

[17] = target: T15, FGFR3 (Homo sapiens, UniProt P22607); assay: Millipore kinase panel; type: biochemical; details: read-out: % Control
T15 construct: purchased Millipore KinaseProfiler (kinases); Cerep (receptors and ion channels)

[18] = target: T16, PHKGAMMA2 (Homo sapiens, UniProt P15735); assay: Millipore kinase panel; type: biochemical; details: read-out: % Control
T16 construct: purchased Millipore KinaseProfiler (kinases); Cerep (receptors and ion channels)
T16 sequence (P15735 whole entry): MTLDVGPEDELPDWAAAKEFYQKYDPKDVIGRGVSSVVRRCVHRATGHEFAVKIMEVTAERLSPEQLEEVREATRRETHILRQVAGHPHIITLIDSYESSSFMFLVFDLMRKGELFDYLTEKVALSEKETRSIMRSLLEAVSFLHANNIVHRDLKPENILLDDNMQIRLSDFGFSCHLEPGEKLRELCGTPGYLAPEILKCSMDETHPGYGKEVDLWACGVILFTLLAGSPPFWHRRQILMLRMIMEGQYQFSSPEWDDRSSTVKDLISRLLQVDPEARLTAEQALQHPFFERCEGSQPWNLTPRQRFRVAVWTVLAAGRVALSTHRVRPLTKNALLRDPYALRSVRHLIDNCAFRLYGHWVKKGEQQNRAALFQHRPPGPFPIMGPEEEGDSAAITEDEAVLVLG

[19] = target: T17, FGFR4 (Homo sapiens, UniProt P22455); assay: Millipore kinase panel; type: biochemical; details: read-out: % Control
T17 construct: purchased Millipore KinaseProfiler (kinases); Cerep (receptors and ion channels)
T17 sequence (P22455 22-802): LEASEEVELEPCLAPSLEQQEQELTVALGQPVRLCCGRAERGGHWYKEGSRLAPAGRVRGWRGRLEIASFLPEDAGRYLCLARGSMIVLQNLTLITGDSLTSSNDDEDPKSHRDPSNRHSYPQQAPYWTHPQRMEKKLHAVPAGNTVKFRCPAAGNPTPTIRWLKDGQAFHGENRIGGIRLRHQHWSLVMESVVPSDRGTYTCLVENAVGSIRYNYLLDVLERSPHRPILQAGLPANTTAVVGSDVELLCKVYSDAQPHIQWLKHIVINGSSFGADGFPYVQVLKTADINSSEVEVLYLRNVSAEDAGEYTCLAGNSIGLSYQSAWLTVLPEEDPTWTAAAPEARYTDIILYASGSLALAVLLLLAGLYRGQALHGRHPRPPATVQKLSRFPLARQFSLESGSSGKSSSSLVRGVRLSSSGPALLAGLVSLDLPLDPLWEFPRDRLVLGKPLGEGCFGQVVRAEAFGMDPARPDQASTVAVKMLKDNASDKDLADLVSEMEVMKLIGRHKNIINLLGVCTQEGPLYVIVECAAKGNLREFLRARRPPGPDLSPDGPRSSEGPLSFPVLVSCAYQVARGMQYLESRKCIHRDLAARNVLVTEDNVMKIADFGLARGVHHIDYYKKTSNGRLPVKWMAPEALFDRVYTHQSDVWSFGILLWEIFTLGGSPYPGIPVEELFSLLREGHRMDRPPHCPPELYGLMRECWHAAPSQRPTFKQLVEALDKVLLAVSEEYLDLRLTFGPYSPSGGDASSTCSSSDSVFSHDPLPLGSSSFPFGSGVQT

[20] = target: T18, TLK2 (Homo sapiens, UniProt Q86UE8); assay: Millipore kinase panel; type: biochemical; details: read-out: % Control
T18 construct: purchased Millipore KinaseProfiler (kinases); Cerep (receptors and ion channels)

[21] = tested on: KV channel; assay: CEREP binding panel; details: 10 μM, antagonist radioligand
[22] = target: T19, ROS (Homo sapiens, UniProt P08922); assay: Millipore kinase panel; type: biochemical; details: read-out: % Control
T19 construct: purchased Millipore KinaseProfiler (kinases); Cerep (receptors and ion channels)

[23] = target: T20, JAK2 (Homo sapiens, UniProt O60674); assay: Millipore kinase panel; type: biochemical; details: read-out: % Control
T20 construct: purchased Millipore KinaseProfiler (kinases); Cerep (receptors and ion channels)

[24] = target: T21, μ (MOP) (h) (Homo sapiens, UniProt P35372); assay: CEREP binding panel; details: agonist radioligand
T21 construct: purchased Millipore KinaseProfiler (kinases); Cerep (receptors and ion channels)

[25] = target: T22, FLT3 (Homo sapiens, UniProt P36888); assay: Millipore kinase panel; type: biochemical; details: read-out: % Control
T22 construct: purchased Millipore KinaseProfiler (kinases); Cerep (receptors and ion channels)

[26] = target: T23, AURKB (Homo sapiens, UniProt Q96GD4); assay: Millipore kinase panel; type: biochemical; details: read-out: % Control
T23 construct: purchased Millipore KinaseProfiler (kinases); Cerep (receptors and ion channels)

[27] = target: T24, DAPK1 (Homo sapiens, UniProt P53355); assay: Millipore kinase panel; type: biochemical; details: read-out: % Control
T24 construct: purchased Millipore KinaseProfiler (kinases); Cerep (receptors and ion channels)

[28] = target: T25, BRK (Homo sapiens, UniProt Q13882); assay: Millipore kinase panel; type: biochemical; details: read-out: % Control
T25 construct: purchased Millipore KinaseProfiler (kinases); Cerep (receptors and ion channels)
T25 sequence (Q13882 whole entry): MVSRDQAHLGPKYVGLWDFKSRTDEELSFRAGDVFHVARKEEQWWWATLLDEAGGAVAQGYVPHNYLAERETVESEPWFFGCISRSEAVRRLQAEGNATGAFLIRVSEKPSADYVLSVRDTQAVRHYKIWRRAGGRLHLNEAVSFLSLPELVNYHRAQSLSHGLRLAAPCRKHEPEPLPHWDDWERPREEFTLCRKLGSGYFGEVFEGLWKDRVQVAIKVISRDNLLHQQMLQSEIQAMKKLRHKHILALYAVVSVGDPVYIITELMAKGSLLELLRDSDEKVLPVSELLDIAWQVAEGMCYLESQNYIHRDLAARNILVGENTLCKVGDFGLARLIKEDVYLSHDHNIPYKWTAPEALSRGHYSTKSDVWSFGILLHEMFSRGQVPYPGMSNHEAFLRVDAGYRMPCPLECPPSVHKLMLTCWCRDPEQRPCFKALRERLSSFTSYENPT

[29] = target: T26, PKG1ALPHA (Homo sapiens, UniProt Q13976); assay: Millipore kinase panel; type: biochemical; details: read-out: % Control
T26 construct: purchased Millipore KinaseProfiler (kinases); Cerep (receptors and ion channels)

[30] = target: T27, MAPKAP-K3 (Homo sapiens, UniProt Q16644); assay: Millipore kinase panel; type: biochemical; details: read-out: % Control
T27 construct: purchased Millipore KinaseProfiler (kinases); Cerep (receptors and ion channels)

[31] = target: T28, ROCK-I (Homo sapiens, UniProt Q13464); assay: Millipore kinase panel; type: biochemical; details: read-out: % Control
T28 construct: purchased Millipore KinaseProfiler (kinases); Cerep (receptors and ion channels)

[32] = target: T29, YES (Homo sapiens, UniProt P07947); assay: Millipore kinase panel; type: biochemical; details: read-out: % Control
T29 construct: purchased Millipore KinaseProfiler (kinases); Cerep (receptors and ion channels)

[33] = target: T30, TRKB (Homo sapiens, UniProt Q16620); assay: Millipore kinase panel; type: biochemical; details: read-out: % Control
T30 construct: purchased Millipore KinaseProfiler (kinases); Cerep (receptors and ion channels)

[34] = target: T31, PAK2 (Homo sapiens, UniProt Q13177); assay: Millipore kinase panel; type: biochemical; details: read-out: % Control
T31 construct: purchased Millipore KinaseProfiler (kinases); Cerep (receptors and ion channels)

[35] = target: T32, CDK2/CYCLINA (Homo sapiens, UniProt P24941); assay: Millipore kinase panel; type: biochemical; details: read-out: % Control
T32 construct: purchased Millipore KinaseProfiler (kinases); Cerep (receptors and ion channels)

[36] = target: T33, A2A (h) (Homo sapiens, UniProt P29274); assay: CEREP binding panel; details: agonist radioligand, read-out: % Inhibition of Control Specific Binding
T33 construct: purchased Millipore KinaseProfiler (kinases); Cerep (receptors and ion channels)

[37] = target: T34, EPHB1 (Homo sapiens, UniProt P54762); assay: Millipore kinase panel; type: biochemical; details: read-out: % Control
T34 construct: purchased Millipore KinaseProfiler (kinases); Cerep (receptors and ion channels)

[38] = target: T35, MET (Homo sapiens, UniProt P08581); assay: Millipore kinase panel; type: biochemical; details: read-out: % Control
T35 construct: purchased Millipore KinaseProfiler (kinases); Cerep (receptors and ion channels)

[39] = target: T36, LCK (Homo sapiens, UniProt P06239); assay: Millipore kinase panel; type: biochemical; details: for remaining activity at 1 µM: read-out: % Control
T36 construct: purchased Millipore
T36 sequence (P06239 whole entry): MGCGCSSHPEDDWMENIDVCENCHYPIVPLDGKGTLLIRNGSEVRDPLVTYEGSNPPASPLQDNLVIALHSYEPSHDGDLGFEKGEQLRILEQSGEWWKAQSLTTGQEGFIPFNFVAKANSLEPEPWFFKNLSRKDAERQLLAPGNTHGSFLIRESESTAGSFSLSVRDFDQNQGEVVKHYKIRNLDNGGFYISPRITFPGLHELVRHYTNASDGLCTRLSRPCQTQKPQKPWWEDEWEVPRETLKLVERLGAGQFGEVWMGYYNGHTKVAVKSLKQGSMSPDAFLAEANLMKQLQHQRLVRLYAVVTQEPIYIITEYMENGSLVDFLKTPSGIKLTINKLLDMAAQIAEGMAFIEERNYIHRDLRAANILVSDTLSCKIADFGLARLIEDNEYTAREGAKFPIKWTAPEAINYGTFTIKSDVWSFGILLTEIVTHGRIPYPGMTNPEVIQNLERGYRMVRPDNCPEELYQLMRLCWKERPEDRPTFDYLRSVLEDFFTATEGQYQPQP

[40] = target: T37, CSK (Homo sapiens, UniProt P41240); assay: Millipore kinase panel; type: biochemical; details: read-out: % Control
T37 construct: purchased Millipore KinaseProfiler (kinases); Cerep (receptors and ion channels)

[41] = target: T38, 5-HT2B (h) (Homo sapiens, UniProt P41595); assay: CEREP binding panel; details: agonist radioligand, read-out: % Inhibition of Control Specific Binding
T38 construct: purchased Millipore KinaseProfiler (kinases); Cerep (receptors and ion channels)

[42] = target: T39, PAR-1BALPHA (Homo sapiens, UniProt Q7KZI7); assay: Millipore kinase panel; type: biochemical; details: read-out: % Control
T39 construct: purchased Millipore KinaseProfiler (kinases); Cerep (receptors and ion channels)

[43] = target: T40, HASPIN (Homo sapiens, UniProt Q8TF76); assay: Millipore kinase panel; type: biochemical; details: read-out: % Control
T40 construct: purchased Millipore KinaseProfiler (kinases); Cerep (receptors and ion channels)
T40 sequence (Q8TF76 whole entry): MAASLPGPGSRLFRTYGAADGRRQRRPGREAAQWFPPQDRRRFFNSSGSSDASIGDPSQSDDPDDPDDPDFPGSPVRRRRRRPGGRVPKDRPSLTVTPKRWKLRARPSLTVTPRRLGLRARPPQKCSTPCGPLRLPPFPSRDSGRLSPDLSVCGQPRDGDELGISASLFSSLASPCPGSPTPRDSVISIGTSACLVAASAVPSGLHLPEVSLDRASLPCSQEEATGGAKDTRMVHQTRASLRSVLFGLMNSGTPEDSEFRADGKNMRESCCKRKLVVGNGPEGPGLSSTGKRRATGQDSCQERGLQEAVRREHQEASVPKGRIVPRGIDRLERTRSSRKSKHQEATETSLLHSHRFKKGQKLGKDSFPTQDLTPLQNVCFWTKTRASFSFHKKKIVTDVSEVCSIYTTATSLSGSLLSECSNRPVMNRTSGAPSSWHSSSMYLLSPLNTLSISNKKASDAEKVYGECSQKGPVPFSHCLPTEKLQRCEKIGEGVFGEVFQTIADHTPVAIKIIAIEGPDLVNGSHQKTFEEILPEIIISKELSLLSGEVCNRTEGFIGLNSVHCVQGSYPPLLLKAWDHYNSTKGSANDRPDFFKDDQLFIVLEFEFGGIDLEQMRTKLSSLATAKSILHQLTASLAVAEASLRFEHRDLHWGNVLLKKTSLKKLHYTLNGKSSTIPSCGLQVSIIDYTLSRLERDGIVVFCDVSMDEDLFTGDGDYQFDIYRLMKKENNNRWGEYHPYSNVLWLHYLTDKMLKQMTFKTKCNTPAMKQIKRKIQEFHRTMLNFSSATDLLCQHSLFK

[44] = target: T41, HIPK2 (Homo sapiens, UniProt Q9H2X6); assay: Millipore kinase panel; type: biochemical; details: read-out: % Control
T41 construct: purchased Millipore KinaseProfiler (kinases); Cerep (receptors and ion channels)

O=C1NCCC12CCN(c1c(Cl)cncc1-c1ccc(N3CCOCC3)cc1)CC2 [Compound 44, 8-(3-Chloro-5-(4-morpholin-4-ylphenyl)pyridin-4-yl)-2,8-diazaspiro[4.5]decan-1-one]
inhibition at 10 µM [1]: 11%
% Inhibition of Control Specific Binding [2]: 15%
remaining activity at 1 µM [3]: 2%
inhibition at 10 µM [4]: 2%
remaining activity at 1 µM [5]: 1%
inhibition at 10 µM [6]: 12%
remaining activity at 1 µM [7]: 4%
% Control [8]: 46%
remaining activity at 1 µM [9]: 10%
remaining activity at 1 µM [10]: -2%
remaining activity at 1 µM [11]: -3%
remaining activity at 1 µM [12]: 7%
remaining activity at 1 µM [13]: 4%
remaining activity at 1 µM [14]: 34%
inhibition at 10 µM [15]: -1%
remaining activity at 1 µM [16]: 14%
remaining activity at 1 µM [17]: 10%
remaining activity at 1 µM [18]: 10%
remaining activity at 1 µM [19]: 7%
remaining activity at 1 µM [20]: -12%
% Inhibition of Control Specific Binding [21]: 2%
remaining activity at 1 µM [22]: 2%
remaining activity at 1 µM [23]: 4%
inhibition at 10 µM ([24]; read-out: % Inhibition of Control Specific Binding): 9%
remaining activity at 1 µM [25]: -7%
remaining activity at 1 µM [26]: -1%
remaining activity at 1 µM [27]: 0%
remaining activity at 1 µM [28]: 2%
remaining activity at 1 µM [29]: 8%
remaining activity at 1 µM [30]: -3%
remaining activity at 1 µM [31]: -7%
remaining activity at 1 µM [32]: -11%
remaining activity at 1 µM [33]: 2%
remaining activity at 1 µM [34]: 12%
remaining activity at 1 µM [35]: -9%
inhibition at 10 µM [36]: 4%
remaining activity at 1 µM [37]: -1%
remaining activity at 1 µM [38]: -14%
remaining activity at 1 µM [39]: 13%
remaining activity at 1 µM [40]: -1%
inhibition at 10 µM [41]: -4%
remaining activity at 1 µM [42]: -6%
remaining activity at 1 µM [43]: 21%
remaining activity at 1 µM [44]: 2%

Cn1cc(-c2ccc(-c3cncc(Cl)c3N3CCC4(CCNC4=O)CC3)cc2)cn1 [Compound 74, 8-(3-Chloro-5-(4-(1-methyl-1H-pyrazol-4-yl)phenyl)pyridin-4-yl)-2,8-diazaspiro[4.5]decan-1-one]
inhibition at 10 µM [1]: -17%
% Inhibition of Control Specific Binding [2]: 29%
remaining activity at 1 µM [3]: 2%
inhibition at 10 µM [4]: 8%
remaining activity at 1 µM [5]: 3%
inhibition at 10 µM [6]: 3%
remaining activity at 1 µM [7]: -9%
% Control [8]: 13%
remaining activity at 1 µM [9]: 6%
remaining activity at 1 µM [10]: -3%
remaining activity at 1 µM [11]: 20%
remaining activity at 1 µM [12]: -12%
remaining activity at 1 µM [13]: -2%
remaining activity at 1 µM [14]: -7%
inhibition at 10 µM [15]: 1%
remaining activity at 1 µM [16]: 1%
remaining activity at 1 µM [17]: -4%
remaining activity at 1 µM [18]: 4%
remaining activity at 1 µM [19]: 0%
remaining activity at 1 µM [20]: -9%
% Inhibition of Control Specific Binding [21]: -13%
remaining activity at 1 µM [22]: 7%
remaining activity at 1 µM [23]: 11%
% Inhibition of Control Specific Binding ([24]; 10 μM): 42%
remaining activity at 1 µM [25]: -9%
remaining activity at 1 µM [26]: -8%
remaining activity at 1 µM [27]: 0%
remaining activity at 1 µM [28]: 11%
remaining activity at 1 µM [29]: 0%
remaining activity at 1 µM [30]: 7%
remaining activity at 1 µM [31]: -1%
remaining activity at 1 µM [32]: 7%
remaining activity at 1 µM [33]: -25%
remaining activity at 1 µM [34]: -7%
remaining activity at 1 µM [35]: -8%
inhibition at 10 µM [36]: 22%
remaining activity at 1 µM [37]: -7%
remaining activity at 1 µM [38]: 3%
IC50 ([39]; ATP at Km): > 10 µM
remaining activity at 1 µM [39]: 10%
remaining activity at 1 µM [40]: 0%
inhibition at 10 µM [41]: 6%
remaining activity at 1 µM [42]: 4%
remaining activity at 1 µM [43]: -11%
remaining activity at 1 µM [44]: -12%
